# Laboratory results published in PMC12406203 (Journal of Medicinal Chemistry, 2025).
# What was measured:
# Assay in all cases: KINOMEscan
# Type in all cases: binding
# MKNK2 = target: T1, MKNK2 (Homo sapiens, UniProt Q9HBH9)
# T1 construct: purchased Eurofins DiscoverX, LLC; host or cells: E. coli (BL21-derived, T7 phage) or HEK-293
# JNK1 = target: T2, JNK1 (Homo sapiens, UniProt P45983)
# T2 construct: purchased Eurofins DiscoverX, LLC; host or cells: E. coli (BL21-derived, T7 phage) or HEK-293
# T2 sequence (P45983 whole entry): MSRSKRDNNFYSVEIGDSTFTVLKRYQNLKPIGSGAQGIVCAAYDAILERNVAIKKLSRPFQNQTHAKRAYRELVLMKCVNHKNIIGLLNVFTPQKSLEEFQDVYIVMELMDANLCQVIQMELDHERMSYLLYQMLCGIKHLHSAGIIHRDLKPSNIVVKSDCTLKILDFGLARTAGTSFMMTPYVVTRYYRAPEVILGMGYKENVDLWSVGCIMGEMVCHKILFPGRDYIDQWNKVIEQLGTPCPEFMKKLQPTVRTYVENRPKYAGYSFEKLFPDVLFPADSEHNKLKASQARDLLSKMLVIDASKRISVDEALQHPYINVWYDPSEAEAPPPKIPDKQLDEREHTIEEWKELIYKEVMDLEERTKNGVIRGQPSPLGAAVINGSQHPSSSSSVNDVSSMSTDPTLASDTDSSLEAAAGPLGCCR
# TIE2 = target: T3, TIE2 (Homo sapiens, UniProt Q02763)
# T3 construct: purchased Eurofins DiscoverX, LLC; host or cells: E. coli BL21-derived host (T7 phage) or HEK-293
# T3 sequence (Q02763 23-1124): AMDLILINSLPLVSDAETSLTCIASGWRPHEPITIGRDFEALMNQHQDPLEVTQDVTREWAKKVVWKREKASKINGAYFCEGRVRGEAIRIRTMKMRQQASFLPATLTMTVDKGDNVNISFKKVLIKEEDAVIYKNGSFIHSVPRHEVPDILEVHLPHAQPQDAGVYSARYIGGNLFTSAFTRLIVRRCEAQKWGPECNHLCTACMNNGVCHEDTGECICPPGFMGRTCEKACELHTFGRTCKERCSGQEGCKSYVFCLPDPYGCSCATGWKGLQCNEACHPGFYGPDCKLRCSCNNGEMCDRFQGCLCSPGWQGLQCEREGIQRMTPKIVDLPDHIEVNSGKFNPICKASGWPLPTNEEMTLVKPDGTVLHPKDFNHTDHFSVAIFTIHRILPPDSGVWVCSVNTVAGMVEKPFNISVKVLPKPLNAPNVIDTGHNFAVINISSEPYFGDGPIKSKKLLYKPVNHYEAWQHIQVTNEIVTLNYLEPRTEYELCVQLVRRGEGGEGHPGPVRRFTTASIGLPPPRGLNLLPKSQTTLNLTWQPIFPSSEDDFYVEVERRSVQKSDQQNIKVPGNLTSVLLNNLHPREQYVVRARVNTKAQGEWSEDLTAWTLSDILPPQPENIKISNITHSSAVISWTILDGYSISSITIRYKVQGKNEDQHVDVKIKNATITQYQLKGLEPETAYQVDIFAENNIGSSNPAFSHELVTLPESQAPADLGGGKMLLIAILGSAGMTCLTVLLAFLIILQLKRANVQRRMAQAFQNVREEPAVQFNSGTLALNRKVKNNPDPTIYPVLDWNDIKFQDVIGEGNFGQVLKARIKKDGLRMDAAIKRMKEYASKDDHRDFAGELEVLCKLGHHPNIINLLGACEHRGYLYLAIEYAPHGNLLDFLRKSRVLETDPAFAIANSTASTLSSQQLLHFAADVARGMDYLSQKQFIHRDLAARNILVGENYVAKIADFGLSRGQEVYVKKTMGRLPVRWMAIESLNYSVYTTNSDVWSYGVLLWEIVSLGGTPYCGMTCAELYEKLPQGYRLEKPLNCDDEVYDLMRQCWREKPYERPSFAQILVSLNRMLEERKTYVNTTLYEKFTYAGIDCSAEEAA
# PIK3C2B = target: T4, PIK3C2B (Homo sapiens, UniProt O00750)
# T4 construct: purchased Eurofins DiscoverX, LLC; host or cells: E. coli BL21-derived host (T7 phage) or HEK-293
# T4 sequence (O00750 whole entry): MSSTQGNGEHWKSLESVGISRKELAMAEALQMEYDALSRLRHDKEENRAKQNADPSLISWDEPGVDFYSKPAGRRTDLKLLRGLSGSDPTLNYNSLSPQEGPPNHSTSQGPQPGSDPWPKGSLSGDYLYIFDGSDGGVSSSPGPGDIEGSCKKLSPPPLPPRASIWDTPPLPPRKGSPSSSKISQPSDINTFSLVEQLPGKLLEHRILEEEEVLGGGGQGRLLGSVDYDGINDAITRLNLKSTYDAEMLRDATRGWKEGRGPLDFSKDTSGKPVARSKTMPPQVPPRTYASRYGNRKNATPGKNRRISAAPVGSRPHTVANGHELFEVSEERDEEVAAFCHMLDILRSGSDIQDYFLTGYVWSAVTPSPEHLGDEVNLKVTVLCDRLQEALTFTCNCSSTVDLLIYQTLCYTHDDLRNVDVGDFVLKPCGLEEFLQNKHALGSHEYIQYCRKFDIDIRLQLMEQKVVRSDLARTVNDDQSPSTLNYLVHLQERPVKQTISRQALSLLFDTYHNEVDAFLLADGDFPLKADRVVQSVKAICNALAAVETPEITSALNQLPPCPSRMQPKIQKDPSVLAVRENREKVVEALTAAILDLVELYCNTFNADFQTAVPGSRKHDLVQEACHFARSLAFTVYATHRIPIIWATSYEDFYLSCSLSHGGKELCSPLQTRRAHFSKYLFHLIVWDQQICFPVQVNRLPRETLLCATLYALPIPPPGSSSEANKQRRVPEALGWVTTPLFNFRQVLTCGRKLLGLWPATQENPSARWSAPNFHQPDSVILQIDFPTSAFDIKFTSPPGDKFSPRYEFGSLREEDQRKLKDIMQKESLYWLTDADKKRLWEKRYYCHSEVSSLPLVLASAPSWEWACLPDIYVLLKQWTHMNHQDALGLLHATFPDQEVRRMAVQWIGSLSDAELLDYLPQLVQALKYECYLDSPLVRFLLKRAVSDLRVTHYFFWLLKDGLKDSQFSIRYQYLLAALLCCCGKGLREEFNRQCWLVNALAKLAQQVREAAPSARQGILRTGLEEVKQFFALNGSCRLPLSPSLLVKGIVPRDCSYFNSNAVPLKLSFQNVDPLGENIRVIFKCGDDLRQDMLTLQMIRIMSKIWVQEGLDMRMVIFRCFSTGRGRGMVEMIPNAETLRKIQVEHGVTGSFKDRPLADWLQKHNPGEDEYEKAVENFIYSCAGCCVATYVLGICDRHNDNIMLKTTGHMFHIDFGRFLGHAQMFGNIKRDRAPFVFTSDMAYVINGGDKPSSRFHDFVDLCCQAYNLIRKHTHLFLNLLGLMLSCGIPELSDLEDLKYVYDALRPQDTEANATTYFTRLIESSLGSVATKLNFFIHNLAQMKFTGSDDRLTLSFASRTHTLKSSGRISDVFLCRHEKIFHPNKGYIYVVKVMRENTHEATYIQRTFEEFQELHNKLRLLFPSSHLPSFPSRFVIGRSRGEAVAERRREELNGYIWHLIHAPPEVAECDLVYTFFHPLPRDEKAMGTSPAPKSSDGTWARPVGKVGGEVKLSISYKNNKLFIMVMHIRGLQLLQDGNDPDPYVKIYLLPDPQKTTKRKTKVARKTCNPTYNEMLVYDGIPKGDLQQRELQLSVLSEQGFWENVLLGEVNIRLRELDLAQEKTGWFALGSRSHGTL
# PLK4 = target: T5, PLK4 (Homo sapiens, UniProt O00444)
# T5 construct: purchased Eurofins DiscoverX, LLC; host or cells: E. coli BL21-derived host (T7 phage) or HEK-293
# T5 sequence (O00444 1-970): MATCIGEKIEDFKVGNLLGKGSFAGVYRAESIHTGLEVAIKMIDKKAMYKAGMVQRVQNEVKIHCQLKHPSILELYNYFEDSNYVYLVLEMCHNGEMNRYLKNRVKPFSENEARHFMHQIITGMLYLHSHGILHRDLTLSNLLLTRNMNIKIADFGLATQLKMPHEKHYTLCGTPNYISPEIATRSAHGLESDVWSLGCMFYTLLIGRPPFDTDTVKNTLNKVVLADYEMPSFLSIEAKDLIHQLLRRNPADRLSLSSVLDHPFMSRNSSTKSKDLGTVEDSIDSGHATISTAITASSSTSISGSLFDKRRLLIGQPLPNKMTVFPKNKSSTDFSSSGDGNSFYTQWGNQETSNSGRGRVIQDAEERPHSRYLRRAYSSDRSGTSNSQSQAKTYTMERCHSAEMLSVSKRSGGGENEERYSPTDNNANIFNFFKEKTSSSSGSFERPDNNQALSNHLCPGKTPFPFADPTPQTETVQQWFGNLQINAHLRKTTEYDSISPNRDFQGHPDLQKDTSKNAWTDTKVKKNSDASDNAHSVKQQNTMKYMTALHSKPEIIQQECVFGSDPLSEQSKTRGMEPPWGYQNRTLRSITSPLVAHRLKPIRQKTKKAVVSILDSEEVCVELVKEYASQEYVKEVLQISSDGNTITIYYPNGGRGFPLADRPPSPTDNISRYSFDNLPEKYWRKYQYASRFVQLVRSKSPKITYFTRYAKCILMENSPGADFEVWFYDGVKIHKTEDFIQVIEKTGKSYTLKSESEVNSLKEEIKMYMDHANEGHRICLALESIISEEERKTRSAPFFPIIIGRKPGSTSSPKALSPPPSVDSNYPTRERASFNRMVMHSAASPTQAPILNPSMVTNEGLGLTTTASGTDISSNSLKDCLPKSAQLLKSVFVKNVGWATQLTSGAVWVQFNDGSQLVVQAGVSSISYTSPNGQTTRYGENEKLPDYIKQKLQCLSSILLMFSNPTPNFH
# SNARK = target: T6, SNARK (Homo sapiens, UniProt Q9H093)
# T6 construct: purchased Eurofins DiscoverX, LLC; host or cells: E. coli BL21-derived host (T7 phage) or HEK-293
# T6 sequence (Q9H093 1-628): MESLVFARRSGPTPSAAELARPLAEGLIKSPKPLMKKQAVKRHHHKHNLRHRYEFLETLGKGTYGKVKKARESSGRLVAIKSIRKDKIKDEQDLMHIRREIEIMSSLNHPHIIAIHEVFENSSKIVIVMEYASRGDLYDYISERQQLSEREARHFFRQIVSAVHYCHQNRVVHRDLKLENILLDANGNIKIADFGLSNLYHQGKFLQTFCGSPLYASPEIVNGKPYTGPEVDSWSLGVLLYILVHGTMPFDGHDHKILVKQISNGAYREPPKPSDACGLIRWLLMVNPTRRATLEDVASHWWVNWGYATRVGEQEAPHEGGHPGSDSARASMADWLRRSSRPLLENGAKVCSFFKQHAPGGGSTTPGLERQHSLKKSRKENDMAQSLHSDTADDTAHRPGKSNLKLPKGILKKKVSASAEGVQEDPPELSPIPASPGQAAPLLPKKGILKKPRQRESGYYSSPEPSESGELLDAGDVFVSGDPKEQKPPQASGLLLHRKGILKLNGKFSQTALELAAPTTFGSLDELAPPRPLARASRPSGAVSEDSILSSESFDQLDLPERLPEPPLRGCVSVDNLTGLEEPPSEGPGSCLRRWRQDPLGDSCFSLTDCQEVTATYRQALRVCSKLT
# T1 sequence (Q9HBH9 whole entry): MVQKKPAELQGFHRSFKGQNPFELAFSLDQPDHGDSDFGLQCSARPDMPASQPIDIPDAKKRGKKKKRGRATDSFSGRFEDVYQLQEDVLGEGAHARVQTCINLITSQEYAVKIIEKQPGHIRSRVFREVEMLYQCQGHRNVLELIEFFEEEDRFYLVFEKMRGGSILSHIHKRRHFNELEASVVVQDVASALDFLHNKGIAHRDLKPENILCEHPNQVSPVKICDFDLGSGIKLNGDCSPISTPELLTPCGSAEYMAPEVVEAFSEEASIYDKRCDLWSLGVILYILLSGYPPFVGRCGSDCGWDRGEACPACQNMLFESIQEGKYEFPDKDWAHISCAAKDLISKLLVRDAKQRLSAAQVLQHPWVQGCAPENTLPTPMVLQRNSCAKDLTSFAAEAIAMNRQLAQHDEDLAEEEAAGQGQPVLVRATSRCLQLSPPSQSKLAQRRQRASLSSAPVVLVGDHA
SMILES,RA @ 1000nM (MKNK2) [%],RA @ 10000nM (MKNK2) [%],RA @ 1000nM (JNK1) [%],RA @ 10000nM (JNK1) [%],RA @ 1000nM (TIE2) [%],RA @ 10000nM (TIE2) [%],RA @ 1000nM (PIK3C2B) [%],RA @ 10000nM (PIK3C2B) [%],RA @ 1000nM (PLK4) [%],RA @ 10000nM (PLK4) [%],RA @ 1000nM (SNARK) [%],RA @ 10000nM (SNARK) [%]
"CN(C)CCNC(=O)c1cc2c(cnn2CC2CCCCC2)cc1Cc1ccc(F)cc1F [Compound 95, 1-(Cyclohexylmethyl)-5-(2,4-difluorobenzyl)-N-(2-(dimethylamino)ethyl)-1H-indazole-6-carboxamide]",81,67,100,27,90,100,91,91,100,100,93,92
"CC(C)Cn1ncc2cc(Cc3ccc(F)cc3F)c(C(=O)NCCN(C)C)cc21 [Compound 94, 5-(2,4-Difluorobenzyl)-N-(2-(dimethylamino)ethyl)-1-isobutyl-1H-indazole-6-carboxamide]",76,80,77,41,100,100,90,82,100,100,100,93
